Assay results taken from patent US12077503B2, “Substituted cyclic amides and their use as herbicides” (FMC CORPORATION, priority 2015, dated 2024).

Experiments:
Test in all cases: Test G Pre-Emergence Protocol
Format in all cases: in vivo
[1] = system: barnyardgrass (Echinochloa crus-galli); settings: Echinochloa crus-galli, pre-emergence, 312 h, evaluated after 13 days; for pest or weed control at 15.625 g/ha: 15.625 g ai/ha, read-out: Barnyard grass damage rating (100=total damage to plant; 0=no damage to plant); for pest or weed control at 62.5 g/ha: 62.5 g ai/ha, 100=total damage to plant, 0=no damage to plant, read-out: plant damage rating, Barnyardgrass; for pest or weed control at 250 g/ha: 250 g ai/ha, read-out: Barnyardgrass damage rating (100=total damage to plant; 0=no damage to plant)
Outline: (§1)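 Pots of seeds in standard soil were grown for one day in a glasshouse (24/16 °C day/night, 14 h light, 65% humidity), then sprayed with compound in acetone/water 50:50 with 0.5% Tween 20 at 15.625, 62.5 or 250 g/ha. Damage was scored after 13 days on a 0 (none) to 100 (total) scale.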

corn (Zea mays) = settings: Zea mays, pre-emergence, 312 h, evaluated after 13 days; for plant injury at 15.625 g/ha: 15.625 g ai/ha; for plant injury at 15.625 g/ha / plant injury at 250 g/ha: read-out: Corn damage rating (100=total damage to plant; 0=no damage to plant); for plant injury at 62.5 g/ha: 62.5 g ai/ha, 100=total damage to plant, 0=no damage to plant, read-out: plant damage rating, Corn; for plant injury at 250 g/ha: 250 g ai/ha
Outline: as §1

[2] = system: giant foxtail (Setaria faberi); settings: Setaria faberi, pre-emergence, 312 h, evaluated after 13 days; for pest or weed control at 15.625 g/ha: 15.625 g ai/ha; for pest or weed control at 15.625 g/ha / pest or weed control at 250 g/ha: read-out: Foxtail, Giant damage rating (100=total damage to plant; 0=no damage to plant); for pest or weed control at 62.5 g/ha: 62.5 g ai/ha, 100=total damage to plant, 0=no damage to plant, read-out: plant damage rating, Foxtail, Giant; for pest or weed control at 250 g/ha: 250 g ai/ha
Outline: as §1

[3] = system: ivy-leaved morning glory (Ipomoea hederacea); settings: Ipomoea, pre-emergence, 312 h, evaluated after 13 days; for pest or weed control at 15.625 g/ha: 15.625 g ai/ha, read-out: Morning-glory, Ivy-leaved damage rating (100=total damage to plant; 0=no damage to plant); for pest or weed control at 62.5 g/ha: 62.5 g ai/ha, 100=total damage to plant, 0=no damage to plant, read-out: plant damage rating, Morningglory, Ivy-leaved; for pest or weed control at 250 g/ha: 250 g ai/ha, read-out: Morningglory, Ivy-leaved damage rating (100=total damage to plant; 0=no damage to plant)
Outline: as §1

[4] = system: redroot pigweed (Amaranthus retroflexus); settings: Amaranthus retroflexus, pre-emergence, 312 h, evaluated after 13 days; for pest or weed control at 15.625 g/ha: 15.625 g ai/ha; for pest or weed control at 15.625 g/ha / pest or weed control at 250 g/ha: read-out: Pigweed, Redroot damage rating (100=total damage to plant; 0=no damage to plant); for pest or weed control at 62.5 g/ha: 62.5 g ai/ha, 100=total damage to plant, 0=no damage to plant, read-out: plant damage rating, Pigweed, Redroot; for pest or weed control at 250 g/ha: 250 g ai/ha
Outline: as §1

[5] = system: velvetleaf (Abutilon theophrasti); settings: Abutilon theophrasti, pre-emergence, 312 h, evaluated after 13 days; for pest or weed control at 15.625 g/ha: 15.625 g ai/ha; for pest or weed control at 15.625 g/ha / pest or weed control at 250 g/ha: read-out: Velvetleaf damage rating (100=total damage to plant; 0=no damage to plant); for pest or weed control at 62.5 g/ha: 62.5 g ai/ha, 100=total damage to plant, 0=no damage to plant, read-out: plant damage rating, Velvetleaf; for pest or weed control at 250 g/ha: 250 g ai/ha
Outline: as §1

## CN1C[C@@H](c2ccc(C(F)(F)F)cc2)[C@H](C(=O)Nc2ncc(C#N)s2)C1=O (racemic) [Compound 1528]
[1]
  pest or weed control at 15.625 g/ha: 0%
  pest or weed control at 62.5 g/ha: 0%
  pest or weed control at 250 g/ha: 0%
Corn (Zea mays)
  plant injury at 15.625 g/ha: 0%
  plant injury at 62.5 g/ha: 0%
  plant injury at 250 g/ha: 0%
[2]
  pest or weed control at 15.625 g/ha: 0%
  pest or weed control at 62.5 g/ha: 0%
  pest or weed control at 250 g/ha: 0%
[3]
  pest or weed control at 15.625 g/ha: 0%
  pest or weed control at 62.5 g/ha: 0%
  pest or weed control at 250 g/ha: 0%
[4]
  pest or weed control at 15.625 g/ha: 0%
  pest or weed control at 62.5 g/ha: 0%
  pest or weed control at 250 g/ha: 0%
[5]
  pest or weed control at 15.625 g/ha: 0%
  pest or weed control at 62.5 g/ha: 0%
  pest or weed control at 250 g/ha: 0%

## CN1C[C@H](c2ccc3occc3c2)[C@@H](C(=O)Nc2cccc(F)c2F)C1=O (racemic) [Compound 1500]
[1]
  pest or weed control at 15.625 g/ha: 30%
  pest or weed control at 62.5 g/ha: 90%
  pest or weed control at 250 g/ha: 90%
Corn (Zea mays)
  plant injury at 15.625 g/ha: 0%
  plant injury at 62.5 g/ha: 0%
  plant injury at 250 g/ha: 30%
[2]
  pest or weed control at 15.625 g/ha: 60%
  pest or weed control at 62.5 g/ha: 80%
  pest or weed control at 250 g/ha: 80%
[3]
  pest or weed control at 15.625 g/ha: 0%
  pest or weed control at 250 g/ha: 20%
[4]
  pest or weed control at 15.625 g/ha: 0%
  pest or weed control at 62.5 g/ha: 0%
  pest or weed control at 250 g/ha: 80%
[5]
  pest or weed control at 15.625 g/ha: 0%
  pest or weed control at 62.5 g/ha: 0%
  pest or weed control at 250 g/ha: 20%

## CN1C[C@@H](c2ccc(C(F)(F)F)cc2)[C@H](C(=O)Nc2ccno2)C1=O (racemic) [Compound 1513]
[1]
  pest or weed control at 15.625 g/ha: 0%
  pest or weed control at 62.5 g/ha: 0%
  pest or weed control at 250 g/ha: 0%
Corn (Zea mays)
  plant injury at 15.625 g/ha: 0%
  plant injury at 62.5 g/ha: 0%
  plant injury at 250 g/ha: 0%
[2]
  pest or weed control at 15.625 g/ha: 0%
  pest or weed control at 62.5 g/ha: 0%
  pest or weed control at 250 g/ha: 0%
[3]
  pest or weed control at 15.625 g/ha: 0%
  pest or weed control at 62.5 g/ha: 0%
  pest or weed control at 250 g/ha: 0%
[4]
  pest or weed control at 15.625 g/ha: 0%
  pest or weed control at 62.5 g/ha: 0%
  pest or weed control at 250 g/ha: 0%
[5]
  pest or weed control at 15.625 g/ha: 0%
  pest or weed control at 62.5 g/ha: 0%
  pest or weed control at 250 g/ha: 0%

## CN1C[C@@H](c2ccc(C(F)(F)F)cc2)[C@H](C(=O)Nc2ccccc2)C1=O (racemic) [Compound 1404]
[1]
  pest or weed control at 15.625 g/ha: 0%
  pest or weed control at 62.5 g/ha: 20%
  pest or weed control at 250 g/ha: 70%
Corn (Zea mays)
  plant injury at 15.625 g/ha: 0%
  plant injury at 62.5 g/ha: 0%
  plant injury at 250 g/ha: 0%
[2]
  pest or weed control at 15.625 g/ha: 0%
  pest or weed control at 62.5 g/ha: 70%
  pest or weed control at 250 g/ha: 80%
[3]
  pest or weed control at 15.625 g/ha: 0%
  pest or weed control at 62.5 g/ha: 10%
  pest or weed control at 250 g/ha: 20%
[4]
  pest or weed control at 15.625 g/ha: 0%
  pest or weed control at 62.5 g/ha: 0%
  pest or weed control at 250 g/ha: 20%
[5]
  pest or weed control at 15.625 g/ha: 0%
  pest or weed control at 62.5 g/ha: 0%
  pest or weed control at 250 g/ha: 0%

## CN1C[C@@H](c2ccc(C(F)(F)F)cc2)[C@H](C(=O)Nc2cc[nH]n2)C1=O (racemic) [Compound 1533]
[1]
  pest or weed control at 15.625 g/ha: 0%
  pest or weed control at 62.5 g/ha: 0%
  pest or weed control at 250 g/ha: 0%
Corn (Zea mays)
  plant injury at 15.625 g/ha: 0%
  plant injury at 62.5 g/ha: 0%
  plant injury at 250 g/ha: 0%
[2]
  pest or weed control at 62.5 g/ha: 0%
  pest or weed control at 250 g/ha: 0%
[3]
  pest or weed control at 15.625 g/ha: 0%
  pest or weed control at 62.5 g/ha: 0%
  pest or weed control at 250 g/ha: 0%
[4]
  pest or weed control at 15.625 g/ha: 0%
  pest or weed control at 62.5 g/ha: 0%
  pest or weed control at 250 g/ha: 0%
[5]
  pest or weed control at 15.625 g/ha: 0%
  pest or weed control at 62.5 g/ha: 0%
  pest or weed control at 250 g/ha: 0%

## CN1C[C@@H](c2ccc(C(F)(F)F)cc2)[C@H](C(=O)Nc2cc(C(F)(F)F)nn2C)C1=O (racemic) [Compound 1510]
[1]
  pest or weed control at 15.625 g/ha: 0%
  pest or weed control at 62.5 g/ha: 0%
  pest or weed control at 250 g/ha: 0%
Corn (Zea mays)
  plant injury at 15.625 g/ha: 0%
  plant injury at 62.5 g/ha: 0%
  plant injury at 250 g/ha: 0%
[2]
  pest or weed control at 15.625 g/ha: 0%
  pest or weed control at 62.5 g/ha: 0%
  pest or weed control at 250 g/ha: 0%
[3]
  pest or weed control at 15.625 g/ha: 0%
  pest or weed control at 62.5 g/ha: 0%
  pest or weed control at 250 g/ha: 0%
[4]
  pest or weed control at 62.5 g/ha: 0%
  pest or weed control at 250 g/ha: 0%
[5]
  pest or weed control at 15.625 g/ha: 0%
  pest or weed control at 62.5 g/ha: 0%
  pest or weed control at 250 g/ha: 0%
